Columns and labels:
[1] = system: HepG2 cells; test: In vitro cytotoxic activity, MTT assay; type: cell-based, human; details: 24 h treatment, read-out: IC50, compound concentration required to inhibit cell growth by 50%
Description: The obtained 1,8-naphthalimide–carborane conjugates were investigated for their in vitro antitumor activity by examining their cytotoxic effects using the MTT tetrazolium dye assay against the human cancer cell line HepG2 established from hepatocellular carcinoma. IC50 refers to the drug concentration (µM) required to inhibit cell growth by 50%.
The cytotoxic properties of the synthesized compounds were evaluated using the human hepatocellular carcinoma cell line HepG2 established from hepatocellular carcinoma. The HepG2 cell line was purchased from ECACC (Salisbury, UK). Cells were grown in EMEM medium (Corning®) supplemented with 10% heat-inactivated fetal bovine serum (FBS) (Corning®) and antibiotics (Corning®), at 37 °C in a 5% CO2 atmosphere. Upon reaching 80–90% confluency, cells were detached with the trypsin (Corning®) and transferred into 96-well microplates at a density of 12 × 10^3. After overnight incubation at 37 °C in a humidified atmosphere containing 5% CO2, the cells were treated for the next 24 h with compounds. The stock solution of each compound was prepared in DMSO at 10 mM. The cytotoxicity was evaluated by the MTT assay. […] Subsequently, the medium was aspirated and replaced with 3-(4,5-dimethylthiazol-2-yl)-2,5-diphenyltetrazolium bromide (MTT) dye solution (50 µL, 0.5 mg/mL). After 3 h incubation, the resulting MTT formazan crystals were dissolved in DMSO (100 µL). To ensure the complete dissolution of formazan, the plates were shaken on an orbital microplate shaker at 1000 rpm for 15 min (Thermoshaker NeoLab 7–0055, Bionovo, Legnica, Poland). The optical density of each well was then measured on a VICTOR Nivo multimode plate reader at a wavelength of 570 nm. Each experiment consisted of 6 replications of each concentration, and each experiment was repeated three times independently. The results were calculated as a percentage of control group viability. The IC50 values were determined using a non-linear regression from the plot of % viability against log dose of compounds by using GraphPad Prism 6.0 software (GraphPad, San Diego, CA, USA).

[2] = system: calf thymus DNA (ct-DNA); test: Melting temperature (Tm) measurements of ct-DNA, thermal denaturation; type: binding; details: for ΔTm ct-DNA: r = [compound]/[ct-DNA] = 0.3, pH 7.0, 20 mM cacodylate buffer, Tm of ct-DNA alone 74 °C; for effect on thermal stability of ct-DNA (in words): thermal melting experiments
Description: The melting temperature (Tm) of DNA is defined as the temperature at which 50% of the DNA is in form of single strands forming randomly coiled structures. DNA melting is measured by the absorbance of UV light (260 nm) by the DNA solution, where the amount of UV light absorbed is proportional to the fraction of non-bonded base pairs. The majority of DNA-binding small molecules known thus far stabilize duplex DNA against heat denaturation. A high, drug-induced increase in the Tm of DNA is generally viewed as an excellent criterion to select DNA ligands and is a common feature of several anticancer drugs such as intercalators (a significant increase in Tm = 3–8 °C is observed for strong intercalation) and alkylators. The reverse situation (destabilization of DNA to facilitate its denaturation) may be an attractive option to identify therapeutic agents acting on the DNA structure.
Our study conducted Tm measurement to estimate the impact of 1,8-naphthalimides bearing the carborane cluster on DNA stabilization (Table 1, Figures S249–S253, ESI).
The measurements were performed by adding aliquots of DMSO stock solution of the tested compounds to the buffer solution (pH 7.0, 20 mM, cacodylate buffer, DMSO content of the final solution = 0.24–0.36%). The Tm curves were collected at r = 0.3 (r = [compound]/[ct-DNA]) to assure the dominant binding mode. Thermal melting curves were determined by following the absorption change at 260 nm as a function of temperature by using a GBC Cintra10 UV–vis spectrometer (Dandenong, Australia) equipped with a GBC Thermocell Peltier Power Supply (Dandenong, Australia) using a 1 cm path length cell. The absorbance of the samples was monitored at 260 nm from 30 to 90 °C (95 °C for compounds 54–61) with a heating rate of 1 °C/min. Tm values are the midpoints or the transition curves determined from the maximum of the first derivative. The ΔTm values were calculated by subtracting the Tm of the free nucleic acid from the Tm of the sample. Every Tm value reported in this study was average at least three measurements. The error in Tm was 0.5 °C.

[3] = target: T1, human topoisomerase IIα (Homo sapiens, UniProt P11388); test: Human topoisomerase IIα relaxation assay; type: biochemical; details: for IC50: supercoiled pBR322, concentration range 0.1–100 µM, read-out: IC50, compound concentration required to inhibit the activity of this enzyme by 50%
T1 construct: purchased Inspiralis (Norwich, UK)
Description: Therefore, we subjected these compounds to further detailed analyses of inhibitory potential within the concentration range of 0.1–100 µM (Figure S301, ESI) to calculate IC50 values. IC50 refers to the compound concentration (µM) required to inhibit the activity of the topoisomerase enzyme by 50%.
The Human Topoisomerase II-alpha Relaxation Assay Kit was purchased from Inspiralis (Norwich, UK). The Topo IIα inhibition assay was performed as described by the manufacturer. […] Next, TopoIIα (1 U) was added, and the reaction mixture was incubated at 37 °C for an additional 45 min. The reaction was terminated by addition of the STEB buffer (40 % (w/v) sucrose, Tris-HCl (100 mM, pH 8), EDTA (1 mM), bromophenol blue (0.5 mg/mL)). The products were analyzed by electrophoresis using agarose gel (1%) in TAE buffer at 70 V for 2 h, followed by ethidium bromide staining. […] The percentage of Topo-II alpha activity inhibition was calculated by densitometric quantification (Quantity One software, Bio-Rad). The occurrence of a band representing supercoiled DNA on an agarose gel indicated the inhibition of enzyme activity.

T1 sequence (P11388 whole entry): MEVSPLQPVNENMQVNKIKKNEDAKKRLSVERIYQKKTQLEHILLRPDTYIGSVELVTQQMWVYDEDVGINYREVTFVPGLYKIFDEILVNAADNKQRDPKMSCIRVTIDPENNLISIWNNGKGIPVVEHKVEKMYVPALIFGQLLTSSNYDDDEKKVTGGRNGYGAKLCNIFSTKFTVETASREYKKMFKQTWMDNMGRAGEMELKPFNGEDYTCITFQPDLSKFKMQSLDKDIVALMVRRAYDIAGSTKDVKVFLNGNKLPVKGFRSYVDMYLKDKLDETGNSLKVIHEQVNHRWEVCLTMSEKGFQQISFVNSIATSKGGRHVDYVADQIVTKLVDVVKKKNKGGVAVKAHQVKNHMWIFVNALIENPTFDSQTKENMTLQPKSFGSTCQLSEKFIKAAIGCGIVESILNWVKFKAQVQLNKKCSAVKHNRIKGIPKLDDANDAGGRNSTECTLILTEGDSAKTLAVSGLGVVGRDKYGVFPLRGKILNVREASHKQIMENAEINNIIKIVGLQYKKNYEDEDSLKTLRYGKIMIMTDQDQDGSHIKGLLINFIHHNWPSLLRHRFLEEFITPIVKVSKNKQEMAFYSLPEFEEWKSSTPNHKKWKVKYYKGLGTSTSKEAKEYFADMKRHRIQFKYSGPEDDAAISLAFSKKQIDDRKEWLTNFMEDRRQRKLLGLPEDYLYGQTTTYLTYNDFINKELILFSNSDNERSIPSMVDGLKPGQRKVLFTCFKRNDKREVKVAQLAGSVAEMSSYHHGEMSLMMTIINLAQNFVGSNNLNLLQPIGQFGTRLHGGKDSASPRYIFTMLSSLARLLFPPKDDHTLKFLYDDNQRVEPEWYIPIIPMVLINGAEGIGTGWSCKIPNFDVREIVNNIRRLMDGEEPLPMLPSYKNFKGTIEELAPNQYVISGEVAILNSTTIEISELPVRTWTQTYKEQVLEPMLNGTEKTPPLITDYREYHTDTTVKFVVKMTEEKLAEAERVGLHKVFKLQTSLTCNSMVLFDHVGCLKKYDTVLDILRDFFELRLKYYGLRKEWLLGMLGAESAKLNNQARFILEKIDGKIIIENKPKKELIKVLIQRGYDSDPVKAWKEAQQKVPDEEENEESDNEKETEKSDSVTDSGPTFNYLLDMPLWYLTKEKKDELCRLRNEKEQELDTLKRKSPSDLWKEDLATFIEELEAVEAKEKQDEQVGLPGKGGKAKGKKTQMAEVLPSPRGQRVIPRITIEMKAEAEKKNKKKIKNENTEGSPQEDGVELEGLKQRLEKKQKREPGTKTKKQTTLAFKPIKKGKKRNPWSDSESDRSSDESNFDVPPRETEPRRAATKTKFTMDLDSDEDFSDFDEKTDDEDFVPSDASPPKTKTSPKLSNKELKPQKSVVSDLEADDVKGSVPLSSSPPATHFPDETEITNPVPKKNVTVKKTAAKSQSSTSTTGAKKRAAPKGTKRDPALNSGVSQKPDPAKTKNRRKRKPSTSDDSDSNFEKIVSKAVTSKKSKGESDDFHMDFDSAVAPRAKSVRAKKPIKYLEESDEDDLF

Row | IC50 [3] [µM] | fold less active than mitonafide (Topo IIα IC50) [3] [fold] | fold less active than compound 8 (Topo IIα IC50) [3] [fold] | Substance | IC50 [1] [µM] | ΔTm ct-DNA [2] [°C] | effect on thermal stability of ct-DNA (in words) [2]
1 |  |  |  | 4-[3-(1,2-Dicarba-closo-dodecaborane-1-yl)propoxy]-1,8-naphthalic anhydride [Compound 22] | 28.7 ± 3.84 | −1.00 | destabilization
2 |  |  |  | 4-[3-(1,7-Dicarba-closo-dodecaborane-1-yl)propoxy]-1,8-naphthalic anhydride [Compound 23] | 109 ± 3.78 | −0.33 | destabilization
3 | 7.73 |  |  | 4-{1-[3-(1,2-Dicarba-closo-dodecaborane-1-yl)propyl]-1H-1,2,3-triazol-4-yl}-1,8-naphthalic anhydride [Compound 6] | 71.2 ± 1.78 | −0.33 | destabilization
4 |  |  |  | 4-{1-[3-(1,2-Dicarba-closo-dodecaborane-1-yl)propyl]-1H-1,2,3-triazol-4-yl}methoxy-1,8-naphthalic anhydride [Compound 14] | 34.1 ± 2.33 | 0.33 | 
5 | 8.78 |  |  | 4-{1-[3-(1,7-Dicarba-closo-dodecaborane-1-yl)propyl]-1H-1,2,3-triazol-4-yl}-1,8-naphthalic anhydride [Compound 7] | 136 ± 4.24 | 0.00 | 
6 | 61.6 | 12 |  | 4-{1-[3-(1,7-Dicarba-closo-dodecaborane-1-yl)propyl]-1H-1,2,3-triazol-4-yl}methoxy-1,8-naphthalic anhydride [Compound 15] | 38.1 ± 2.85 | 0.00 | 
7 |  |  |  | N-[2-(Dimethylamino)ethyl]-4-[3-(1,2-dicarba-closo-dodecaborane-1-yl)propoxy]-1,8-naphthalimide [Compound 24] | 11 ± 0.66 | 1.33 | better DNA stabilization
8 |  |  |  | N-[2-(Dimethylamino)ethyl]-4-[3-(1,7-dicarba-closo-dodecaborane-1-yl)propoxy]-1,8-naphthalimide [Compound 26] | 4.89 ± 2.59 | 1.33 | better DNA stabilization
9 | 7.72 |  |  | N-[2-(Dimethylamino)ethyl]-4-[(2-(3-(1,2-dicarba-closo-dodecaborane-1-yl)propanamido)ethyl)amino]-1,8-naphthalimide [Compound 36] | 6.03 ± 0.91 | 1.33 | better DNA stabilization
10 | 7.49 |  |  | N-[2-(Dimethylamino)ethyl]-4-[(2-(3-(1,7-dicarba-closo-dodecaborane-1-yl)propanamido)ethyl)amino]-1,8-naphthalimide [Compound 37] | 10.5 ± 0.53 | 2.00 | better DNA stabilization
11 |  |  |  | N-[2-(Dimethylamino)ethyl]-4-[(6-(3-(1,2-dicarba-closo-dodecaborane-1-yl)propanamido)hexyl)amino]-1,8-naphthalimide [Compound 40] | 12.2 ± 0.44 | 0.67 | 
12 |  |  |  | N-[2-(Dimethylamino)ethyl]-4-[(6-(3-(1,7-dicarba-closo-dodecaborane-1-yl)propanamido)hexyl)amino]-1,8-naphthalimide [Compound 41] | 11.9 ± 0.92 | −1.33 | destabilization
13 | 0.58 |  |  | N-[2-(Dimethylamino)ethyl]-4-{1-[3-(1,2-dicarba-closo-dodecaborane-1-yl)propyl]-1H-1,2,3-triazol-4-yl}-1,8-naphthalimide [Compound 8] | 9.65 ± 1.02 | 0.33 | 
14 |  |  |  | N-[2-(Dimethylamino)ethyl]-4-{1-[3-(1,2-dicarba-closo-dodecaborane-1-yl)propyl]-1H-1,2,3-triazol-4-yl}methoxy-1,8-naphthalimide [Compound 16] | 8.17 ± 3.72 | 2.00 | better DNA stabilization
15 |  |  |  | N-[2-(Dimethylamino)ethyl]-4-{1-[3-(1,7-dicarba-closo-dodecaborane-1-yl)propyl]-1H-1,2,3-triazol-4-yl}-1,8-naphthalimide [Compound 10] | 5.35 ± 1.9 | 0.67 | 
16 |  |  |  | N-[2-(Dimethylamino)ethyl]-4-{1-[3-(1,7-dicarba-closo-dodecaborane-1-yl)propyl]-1H-1,2,3-triazol-4-yl}methoxy-1,8-naphthalimide [Compound 18] | 5.8 ± 0.23 | 0.37 | 
17 |  |  |  | N-[2-(N-Pyrrolidinyl)ethyl]-4-[3-(1,2-dicarba-closo-dodecaborane-1-yl)propoxy]-1,8-naphthalimide [Compound 25] | 15.2 ± 2.02 | 0.33 | 
18 |  |  |  | N-[2-(N-Pyrrolidinyl)ethyl]-4-[3-(1,7-dicarba-closo-dodecaborane-1-yl)propoxy]-1,8-naphthalimide [Compound 27] | 4.07 ± 1.19 | 0.33 | 
19 | 2.81 |  | ~5 | N-[2-(N-Pyrrolidinyl)ethyl]-4-[(2-(3-(1,2-dicarba-closo-dodecaborane-1-yl)propanamido)ethyl)amino]-1,8-naphthalimide [Compound 38] | 10.1 ± 1.85 | 1.00 | 
20 |  |  |  | N-[2-(N-Pyrrolidinyl)ethyl]-4-[(2-(3-(1,7-dicarba-closo-dodecaborane-1-yl)propanamido)ethyl)amino]-1,8-naphthalimide [Compound 39] | 9.85 ± 0.59 | 1.00 | 
21 |  |  |  | N-[2-(N-Pyrrolidinyl)ethyl]-4-[(6-(3-(1,2-dicarba-closo-dodecaborane-1-yl)propanamido)hexyl)amino]-1,8-naphthalimide [Compound 42] | 21.1 ± 3.34 | 0.67 | 
22 |  |  |  | N-[2-(N-Pyrrolidinyl)ethyl]-4-[(6-(3-(1,2-dicarba-closo-dodecaborane-1-yl)propanamido)hexyl)amino]-1,8-naphthalimide [Compound 43] | 40 ± 3.89 | 1.00 | 
23 |  |  |  | N-[2-(N-Pyrrolidinyl)ethyl]-4-{1-[3-(1,2-dicarba-closo-dodecaborane-1-yl)propyl]-1H-1,2,3-triazol-4-yl}-1,8-naphthalimide [Compound 9] | 29.6 ± 1.89 | 0.67 | 
